US9132108B2, “Pharmaceutical composition for ameliorating and/or preventing leptin resistance, and use thereof” (HIROSHIMA UNIVERSITY, priority 2009, dated 2015)

Tests used:
Type in all cases: in vivo, mouse
[1] = tested on: mice given high-fat diet for 6 months (leptin resistance); test: Body weight of leptin-resistant mice (6 months high-fat diet), therapeutic effect (Example 8); settings: 3 mg/kg per day orally
Description: In Example 8, effectiveness of flurbiprofen in ameliorating leptin resistance was confirmed by measuring a change in body weight of mice as a reference index. Specifically, 4 weeks-old male mice (C57BL/6 Cr Slc) had been given high-fat diet for 6 months so that leptin resistance would be induced in the mice. Thereafter, the mice were divided into two groups (each consisting of 14 mice), and the mice of individual groups were given the following diets for 3 weeks. • Control group (Cont): normal diet (10 kcal % fat) only • Flurbiprofen-administered group (Ful): normal diet+flurbiprofen Flurbiprofen (F8514, produced by SIGMA) was diluted with drinking water so that the administration amount of flurbiprofen would be 3 mg/kg per day, and was orally administered to the mice in the form of drinking water. The rates of change in body weight of the mice of individual groups were measured with the date when administration of flurbiprofen started (0 week) as a reference. Further, the amount of visceral fat (g) was measured. The visceral fat was extracted from abdomens of the mice and wet weight thereof was measured. FIGS. 13 and 14 show the result. FIG. 13 is a graph showing the rates of change in body weight of the mice of the control group and the mice of the flurbiprofen-administered group. […]

[2] = tested on: blood glucose level; test: Glucose tolerance test in leptin-resistant mice (Example 11); settings: 3 hours after glucose 2 g/kg i.p.; 3 mg/kg per day orally, 3 weeks; vs control group; P<0.07 in t-test
Experimental: Similarly with Example 8, 4 weeks-old male mice (C57BL/6 Cr Slc) had been given high-fat diet for 6 months so that leptin resistance would be induced in the mice. Thereafter, the mice were divided into two groups (each consisting of 8 mice), and the mice of individual groups were given the following diets for 3 weeks. • Control group: normal diet (10 kcal % fat) only • Flurbiprofen-administered group: normal diet+flurbiprofen Flurbiprofen (F8514, produced by SIGMA) was diluted with drinking water so that the administration amount of flurbiprofen would be 3 mg/kg per day, and was orally administered to the mice in the form of drinking water. The mice to which flurbiprofen had been administered for 3 weeks were subjected to a glucose tolerance test. In Example 11, mice were fasted overnight for 17 hours from between 17:00 and 18:00 of the previous day, and fasted blood glucose level (pre) was measured by Freestyle freedom (NIPRO CORPORATION, blood glucose self-monitoring system) at 10:00 to 11:00. Thereafter, glucose was intraperitoneally (i.p.) administered so that the administration amount of glucose would be 2 g/kg. Blood glucose level was measured using Freestyle freedom (NIPRO CORPORATION, blood glucose self-monitoring system) 30 minutes, 1 hour, 2 hours, 3 hours, and 4 hours after glucose administration. FIG. 17 is a graph showing the result of the glucose tolerance test. […]

[3] = tested on: mice given high-fat diet (leptin resistance); test: Body weight of mice given high-fat or normal diet with flurbiprofen for 8 weeks (Example 1); settings: approximately 10 mg/kg per day orally in drinking water
Experimental: In the Examples, 4 weeks-old male mice (C57BL/6 Cr Slc, SHIMIZU Laboratory Supplies Co., Ltd.) were used as laboratory animals. All the animal tests in the Examples were carried out according to the NIH Guide for Care and Use of Laboratory Animals.
Mice were divided into four groups each consisting of 7-8 mice. Mice of individual groups were given diets as follows. • Group 1: Normal diet (10 kcal % fat, D12450B, produced by Research Diets, Inc.) only • Group 2: High-fat diet (60 kcal % fat, D12492, produced by Research Diets, Inc.) only • Group 3: Normal diet+flurbiprofen (F8514, produced by SIGMA) • Group 4: High-fat diet+flurbiprofen (F8514, produced by SIGMA)
Flurbiprofen was diluted with drinking water so that the administration amount of flurbiprofen would be approximately 10 mg/kg per day, and was orally administered to the mice in the form of drinking water. Thereafter, the mice were weighed every 7 days.
FIG. 3 is a graph showing changes in body weights of the mice of individual groups during 8 weeks after flurbiprofen administration. Values in the graph of FIG. 3 are averages of body weights of mice of each group (± their standard deviations) (n=7-8 with respect to each group). Further, statistic analysis was carried out using t-test.

[4] = tested on: mice given high-fat diet for 6 months (leptin resistance); test: Visceral fat of leptin-resistant mice, therapeutic effect (Example 8); settings: 3 weeks after flurbiprofen administration, 3 mg/kg per day orally; vs control group; P<0.01
Description: In Example 8, effectiveness of flurbiprofen in ameliorating leptin resistance was confirmed by measuring a change in body weight of mice as a reference index. Specifically, 4 weeks-old male mice (C57BL/6 Cr Slc) had been given high-fat diet for 6 months so that leptin resistance would be induced in the mice. Thereafter, the mice were divided into two groups (each consisting of 14 mice), and the mice of individual groups were given the following diets for 3 weeks. • Control group (Cont): normal diet (10 kcal % fat) only • Flurbiprofen-administered group (Ful): normal diet+flurbiprofen Flurbiprofen (F8514, produced by SIGMA) was diluted with drinking water so that the administration amount of flurbiprofen would be 3 mg/kg per day, and was orally administered to the mice in the form of drinking water. The rates of change in body weight of the mice of individual groups were measured with the date when administration of flurbiprofen started (0 week) as a reference. Further, the amount of visceral fat (g) was measured. The visceral fat was extracted from abdomens of the mice and wet weight thereof was measured. FIG. 14 is a graph showing the amount of visceral fat (g) of the mice of the control group and the mice of the flurbiprofen-administered group which had been given normal diet for 3 weeks. […]

**Q.** For `C[C@@H](C(=O)O)c1ccc(-c2ccccc2)c(F)c1` [flurbiprofen], which “time after administration at which the effect of ameliorating leptin resistance is observed” value ([1]; rate of change in body weight vs control group) is on record?
**A.** 1 week

**Q.** What about the average body weight ([1]; 3 weeks after the administration of flurbiprofen, normal diet after 6 months high-fat diet, before administration 53.479±0.7804 g, control 48.371±0.6387 g, P<0.05) of the same molecule?
**A.** 45.543 ± 1.1103 g

**Q.** And the “blood glucose level in glucose tolerance test” value [2]?
**A.** reduced blood glucose level

**Q.** What about the body weight ([3]; Group 3 (normal diet+flurbiprofen) vs Group 1 (normal diet only)) of the same molecule?
**A.** no significant difference in body weight

**Q.** And the body weight ([3]; Group 4 (high-fat diet+flurbiprofen) vs Group 2 (high-fat diet only), significance level <5%)?
**A.** prevented an increase in body weight

**Q.** And the “amount of visceral fat” value [4]?
**A.** significantly decreased
